The text below walks through data of US20080214560A1, “Use of Pyrimidine Derivatives in the Manufacture of a Medicament for Prevention and/or Treatment of Alzheimer's Disease” (AstraZeneca AB, priority 2005, published 2008).

pKi: −log10 of the molar value. Structures can show the parent of a compound that is named as a salt.

The target of the assay is T1, recombinant human GSK3β (Homo sapiens, UniProt P49841).
T1 construct: purchased Dundee University, UK
Nature of the assay: GSK3β Scintillation Proximity Assay (ATP competition). In kind it is biochemical. As to conditions: SPA, 1 μM ATP, Km of ATP 20 μM used to calculate Ki. As for the experimental part: Determination of ATP Competition in Scintillation Proximity GSK3β Assay.
GSK3β Scintillation Proximity Assay.
The competition experiments were carried out in duplicate with 10 different concentrations of the inhibitors in clear-bottom microtiter plates (Wallac, Finland). A biotinylated peptide substrate, Biotin-Ala-Ala-Glu-Glu-Leu-Asp-Ser-Arg-Ala-Gly-Ser(PO3H2)-Pro-Gln-Leu (AstraZeneca, Lund), was added at a final concentration of 1 μM in an assay buffer containing 1 mU recombinant human GSK3β (Dundee University, UK), 12 mM morpholinepropanesulfonic acid (MOPS), pH 7.0, 0.3 mM EDTA, 0.01% β-mercaptorethanol, 0.004% Brij 35 (a […] detergent), 0.5% glycerol and 0.5 μg BSA/25 μl. The reaction was initiated by the addition of 0.04 μCi [γ-^33P]ATP (Amersham, UK) and unlabelled ATP at a final concentration of 1 μM and assay volume of 25 μL. After incubation for 20 minutes at room temperature, each reaction was terminated by the addition of 25 μl stop solution containing 5 mM EDTA, 50 μM ATP, 0.1% Triton X-100 and 0.25 mg streptavidin coated Scintillation Proximity Assay (SPA) beads (Amersham, UK). After 6 hours the radioactivity was determined in a liquid scintillation counter (1450 MicroBeta Trilux, Wallac). The inhibition curves were analysed by non-linear regression using GraphPad Prism, USA. The Km value of ATP for GSK3β, used to calculate the inhibition constants (Ki) of the various compounds, was 20 μM.

T1 sequence (P49841 whole entry): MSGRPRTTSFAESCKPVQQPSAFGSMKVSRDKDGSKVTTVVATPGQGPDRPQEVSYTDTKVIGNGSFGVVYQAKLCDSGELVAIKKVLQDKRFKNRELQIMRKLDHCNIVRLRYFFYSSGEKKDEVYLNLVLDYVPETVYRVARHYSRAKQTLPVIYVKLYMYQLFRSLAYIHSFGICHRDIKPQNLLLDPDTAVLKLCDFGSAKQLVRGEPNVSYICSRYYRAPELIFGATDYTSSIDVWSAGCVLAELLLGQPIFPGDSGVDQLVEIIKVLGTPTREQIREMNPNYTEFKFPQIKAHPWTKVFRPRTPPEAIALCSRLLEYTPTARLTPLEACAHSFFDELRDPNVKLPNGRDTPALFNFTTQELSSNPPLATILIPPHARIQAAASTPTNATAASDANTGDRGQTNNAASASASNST

Broadly, the pKi is the Ki on a negative log10 scale, so that one unit is a factor of ten. As for `Cc1ncc(-c2nc(Nc3ccc(C(=O)c4ccccn4)cc3)ncc2F)n1C(C)C` [Example 2, (4-{[5-Fluoro-4-(1-isopropyl-2-methyl-1H-imidazol-5-yl)pyrimidin-2-yl]amino}phenyl)(pyridin-2-yl)methanone hydrochloride], the pKi was 8.89. As for `Cc1cc(S(=O)(=O)N2CCN(C)CC2)ccc1Nc1ncc(F)c(-c2cnc(C)n2C(C)C)n1` [Example 5, 5-Fluoro-4-(1-isopropyl-2-methyl-1H-imidazol-5-yl)-N-{2-methyl-4-[(4-methylpiperazin-1-yl)sulfonyl]phenyl}pyrimidin-2-amine hydrochloride], the negative-log Ki (pKi) is 7.62.

As for `COc1cc(Nc2ncc(F)c(-c3cnc(C)n3C(C)C)n2)ccc1C(=O)N1CCN(C)CC1` [Example 11, 5-Fluoro-4-(1-isopropyl-2-methyl-1H-imidazol-5-yl)-N-{3-methoxy-4-[(4-methylpiperazin-1-yl)carbonyl]phenyl}pyrimidin-2-amine hydrochloride], the pKi was 7.60. For the compound `Cc1ncc(-c2nc(Nc3ccc(C(=O)N4CCN(C)CC4)cc3)ncc2F)n1C(C)C` [Example 13, 5-Fluoro-4-(1-isopropyl-2-methyl-1H-imidazol-5-yl)-N-{4-[(4-methylpiperazin-1-yl)carbonyl]phenyl}pyrimidin-2-amine hydrochloride], the pKi was 8.42.
